Tested on: patients with postpartum depression (PPD)
Test: Clinical trial of inhaled 5-MeO-DMT (individualized dosing regimen) in postpartum depression; one patient, 6 mg then 12 mg
Details: n=1; for MADRS Concentration Difficulties improvement / MADRS Concentration Difficulties score / MADRS Reduced appetite improvement / MADRS Reduced appetite score / MADRS Suicidal Thoughts improvement / MADRS Suicidal Thoughts score: baseline 0; for MADRS Inability to Feel improvement / MADRS Inability to Feel score / MADRS Lassitude improvement / MADRS Lassitude score: baseline 3; for MADRS Pessimistic Thoughts improvement / MADRS Pessimistic Thoughts score / MADRS Reported sadness improvement / MADRS Reported sadness score: baseline 4
Experimental: The single-arm, open-label clinical trial will involve 15 adult female patients with clinically diagnosed postpartum depression (PPD).
The second dose (12 mg) will only be administered if: • a. […] The 6 mg dose was safe and well-tolerated according to the investigator, • c. Any psychoactive effects (PsE) of the prior dose have subsided, and • d. Pre-dose vital parameters and forced expiratory volume in one second (FEV1) are in normal range, or if outside of the normal range, are not clinically significant according to the investigator. • 3. Similarly, a third dose (18 mg) will only be administered if: • a. […] The 12 mg dose was safe and well-tolerated according to the investigator, and • c. Any PsE of the prior dose have subsided, and • d. Pre-dose vital parameters and forced expiratory volume in one second (FEV1) are in normal range, or if outside of the normal range, are not clinically significant according to the investigator.
The patients will be assessed for a peak psychedelic experience (based on a patient-scored visual analogue scale, the PE scale), sedation, and other endpoints after dosing.
Follow-up visits are planned for Day 1, and Day 7 after the dosing day.
The following criteria must be met by all patients considered for clinical trial participation: • 1. Is female and in the age range between 18 and 45 years (inclusive) at screening. • 2. Has a body mass index (BMI) in the range of 18.5 and 35 kg/m^2 (inclusive) at screening. • 3. Meets the trial criteria for PPD as assessed by a trial psychiatrist or registered psychologist: • a. Diagnosis of Major Depressive Disorder without psychotic features, confirmed by the Mini-International Neuropsychiatric Interview (MINI), with peri-partum onset that began no earlier than gestation and no later than the first 4 weeks postpartum. • b. Has a Montgomery-Åsberg Depression Rating Scale (MADRS) total score of equal to or greater than 28 at screening and pre-dose on Day 0. • 6. […] Patients must have a negative pregnancy test at screening and on the pre-test day (Day −1). • 5. Is willing to delay start of other antidepressant or anxiety medication until after the end of the trial at Day 7 and agrees to keep any psychotherapy unchanged during the trial.
A potential patient who meets any of the following key exclusion criteria will be excluded from participation in this trial: • 1. Has, based on history, psychiatric assessment, and evaluation of the MINI, a current or prior diagnosis of bipolar disorder, a manic or hypomanic episode, a psychotic disorder, Major Depressive Disorder (MDD) or other mood disorder with psychotic features, obsessive compulsive disorder, post-traumatic stress disorder (PTSD), autism spectrum disorder, borderline personality disorder, schizophrenia, delusional disorder, paranoid personality disorder, schizoaffective disorder, clinically significant intellectual disability, or any other psychiatric comorbidity that renders the patient unsuitable for the trial according to the investigator's judgment. • 2. Has one or more first or second degree relatives with a current or previously diagnosed bipolar disorder, psychotic disorder or other mood disorder (including MDD) with psychotic features. • 3. Is in the judgement of a trial psychiatrist or registered psychologist, at significant risk for suicide based on history, psychiatric assessment, and evaluation of suicidal ideation and suicidal behaviour based on the Columbia-Suicide Severity Rating Scale (C-SSRS). • 4. Has taken anti-depressive medication within 14 days or 5 half-lives (whichever is longer) prior to dosing (exception: within the last 5 weeks in the case of fluoxetine). • 5.

## COc1ccc2[nH]cc(CCN(C)C)c2c1 [5-MeO-DMT]
  Adverse events (cramping left abdominal pain and headache, Day 0): mild, short-lasting and resolved spontaneously
  Criteria for MADRS response (at least 50% improvement) and MADRS remission (total score <=10): fulfilled standard criteria
  ECG (3 hours), safety laboratory analyses (7 days), CADSS (3 hours, 1 day, 7 days): unremarkable
  Tolerability of IDR (6 mg followed by 12 mg, inhalation): well tolerated
  Tolerability of the inhalation procedure: well tolerated with no inhalation-related adverse events
2 hr
  MADRS Concentration Difficulties improvement: 0
  MADRS Concentration Difficulties score: 0
  MADRS Reduced appetite improvement: 0
  MADRS Reduced appetite score: 0
  MADRS Suicidal Thoughts improvement: 0
  MADRS Suicidal Thoughts score: 0
  MADRS Inability to Feel improvement: 3
  MADRS Inability to Feel score: 0
  MADRS Lassitude improvement: 3
  MADRS Lassitude score: 0
  MADRS Pessimistic Thoughts improvement: 4
  MADRS Pessimistic Thoughts score: 0
  MADRS Reported sadness improvement: 4
  MADRS Reported sadness score: 0
2 hr, baseline 5
  MADRS Apparent sadness improvement: 5
  MADRS Apparent sadness score: 0
  MADRS Inner Tension improvement: 5
  MADRS Inner Tension score: 0
  MADRS Reduced Sleep improvement: 0
  MADRS Reduced Sleep score: 5
Day 1
  MADRS Concentration Difficulties improvement: 0
  MADRS Concentration Difficulties score: 0
  MADRS Reduced appetite improvement: 0
  MADRS Reduced appetite score: 0
  MADRS Suicidal Thoughts improvement: 0
  MADRS Suicidal Thoughts score: 0
  MADRS Inability to Feel improvement: 3
  MADRS Inability to Feel score: 0
  MADRS Lassitude improvement: 3
  MADRS Lassitude score: 0
  MADRS Pessimistic Thoughts improvement: 4
  MADRS Pessimistic Thoughts score: 0
  MADRS Reported sadness improvement: 4
  MADRS Reported sadness score: 0
Day 1, baseline 1
  BPRS Blunted affect improvement: 0
  BPRS Blunted affect score: 1
  BPRS Conceptual disorganization improvement: 0
  BPRS Conceptual disorganization score: 1
  BPRS Disorientation improvement: 0
  BPRS Disorientation score: 1
  BPRS Grandiosity improvement: 0
  BPRS Grandiosity score: 1
  BPRS Hallucinatory behaviour improvement: 0
  BPRS Hallucinatory behaviour score: 1
  BPRS Hostility improvement: 0
  BPRS Hostility score: 1
  BPRS Mannerisms and Posturing improvement: 0
  BPRS Mannerisms and Posturing score: 1
  BPRS Motor retardation improvement: 0
  BPRS Motor retardation score: 1
  BPRS Suspiciousness improvement: 0
  BPRS Suspiciousness score: 1
  BPRS Uncooperativeness improvement: 0
  BPRS Uncooperativeness score: 1
  BPRS Unusual Thought Content improvement: 0
  BPRS Unusual Thought Content score: 1
Day 1, baseline 2
  BPRS Excitement improvement: 1
  BPRS Excitement score: 1
Day 1, baseline 5
  BPRS Emotional withdrawal improvement: 4
  BPRS Emotional withdrawal score: 1
  MADRS Apparent sadness improvement: 5
  MADRS Apparent sadness score: 0
  MADRS Inner Tension improvement: 5
  MADRS Inner Tension score: 0
  MADRS Reduced Sleep improvement: 5
  MADRS Reduced Sleep score: 0
Day 1, baseline 6
  BPRS Depressive Mood improvement: 5
  BPRS Depressive Mood score: 1
  BPRS Guilt feelings improvement: 5
  BPRS Guilt feelings score: 1
  BPRS Somatic Concern improvement: 5
  BPRS Somatic Concern score: 1
  BPRS Tension score: 1
Day 1, baseline 7
  BPRS Anxiety improvement: 6
  BPRS Anxiety score: 1
Day 7, Day 0 score 0
  BIMF item 2 (I feel rested) score: 2
  BIMF item 19 (getting better at taking care of my baby) score: 1
Day 7, Day 0 score 2
  BIMF item 18 (Anxiety or worry often interferes with my mothering ability) score: 5
Day 7, Day 0 score 3
  BIMF item 16 (I worry about how other people judge me (as a mother)) score: 5
Day 7, Day 0 score 4
  BIMF item 13 (taking good care of my physical needs) score: 5
Day 7, Day 0 score 5
  BIMF item 4 (My baby and I understand each other) score: 5
  BIMF item 5 (able to relax and enjoy time with my baby) score: 6
  BIMF item 9 (getting enough encouragement from other people) score: 6
  BIMF item 10 (I trust my own feelings (instincts) when taking care of my baby) score: 6
  BIMF item 11 (I take a little time each week to do something for myself) score: 6
  BIMF item 15 (My baby and I are getting into a routine) score: 6
  BIMF item 17 (able to take care of my baby and my other responsibilities) score: 5
Day 7, Day 0 score 6
  BIMF item 1 (I am a good mother) score: 6
  BIMF item 3 (comfortable with the way I've chosen to feed my baby) score: 6
  BIMF item 6 (people I can trust to care for my baby when I need a break) score: 6
  BIMF item 8 (getting enough adult interaction) score: 6
  BIMF item 12 (taking good care of my baby's physical needs) score: 6
  BIMF item 14 (good decisions about my baby's health and well being) score: 6
  BIMF item 20 (satisfied with the job I am doing as a new mother) score: 5
Day 7
  MADRS Concentration Difficulties improvement: 0
  MADRS Concentration Difficulties score: 0
  MADRS Reduced appetite improvement: 0
  MADRS Reduced appetite score: 0
